The target of this assay is T1, human cloned 5-HT6 receptors (Homo sapiens, UniProt P50406).
T1 construct: expressed in transfected cells; host or cells: Hela cells
Put plainly: 5-HT6 binding affinity, [3H]-LSD displacement in membranes of Hela cells. Particulars: for inhibition at 0.1 µM: test compound dose 100 nM; for inhibition at 0.01 µM: test compound dose 10 nM. The protocol: The affinity of test compounds for the serotonin 5-HT6 receptor is evaluated in the following manner. Cultured Hela cells expressing human cloned 5-HT6 receptors are harvested and centrifuged at low speed (1,000×g) for 10.0 min to remove the culture media. The harvested cells are suspended in half volume of fresh physiological phosphate buffered saline solution and recentrifuged at the same speed. This operation is repeated. The collected cells are then homogenized in ten volumes of 50 mM Tris.HCl (pH 7.4) and 0.5 mM EDTA. The homogenate is centrifuged at 40,000×g for 30.0 min and the precipitate is collected. The obtained pellet is resuspended in 10 volumes of Tris.HCl buffer and recentrifuged at the same speed. The final pellet is suspended in a small volume of Tris.HCl buffer and the tissue protein content is determined in aliquots of 10-25 μl volumes. Bovine Serum Albumin is used as the standard in the protein determination according to the method described in Lowry et al., J. Biol. Chem., 193:265 (1951). The volume of the suspended cell membranes is adjusted to give a tissue protein concentration of 1.0 mg/ml of suspension. The prepared membrane suspension (10 times concentrated) is aliquoted in 1.0 ml volumes and stored at −70° C. until used in subsequent binding experiments.
The reaction is allowed to proceed in the dark for 120 min at room temperature, at which time, the bound ligand-receptor complex is filtered off on a 96 well unifilter with a Packard Filtermate® 196 Harvester. The bound complex caught on the filter disk is allowed to air dry and the radioactivity is measured in a Packard TopCount® equipped with six photomultiplier detectors, after the addition of 40.0 μl Microscint®-20 scintillant to each shallow well. The unifilter plate is heat-sealed and counted in a PackardTopCount® with a tritium efficiency of 31.0%.
Specific binding to the 5-HT6 receptor is defined as the total radioactivity bound less the amount bound in the presence of 10.0 μM unlabeled methiothepin. Binding in the presence of varying concentrations of test compound is expressed as a percentage of specific binding in the absence of test compound. The results are plotted as logit % bound versus log concentration of test compound. Nonlinear regression analysis of data points with a computer assisted program Prism® yields both the IC50 and the Ki values of test compounds with 95% confidence limits.
The amount of displacement by the test compound is given in percent (%) inhibition and is derived from the following equation: [formula] where B0 is the amount of CPM bound in the presence of the testing agent. NSB represents the CPM bound in the presence of a saturating concentration of a displacer and TB represents the total amount of CPM bound at zero (0) concentration of test compound.
Alternatively, a linear regression line of decline of data points is plotted, from which the IC50 value can be read off and the Ki value determined by solving the following equation: [formula] where L is the concentration of the radioactive ligand used and KD is the dissociation constant of the ligand for the receptor, both expressed in nM.

[1] abbreviates: test compound dose 1000 nM, [3H]-LSD 3.0 nM, read-out: % Inhibition.

Like-named read-outs stand apart in the source and are kept apart here.

Usually inhibition stands for the drop in the measured response relative to a control, in per cent. One may read the Ki as a dissociation constant, usually derived from enzyme kinetics or from competition with a known ligand. Higher therefore signals weaker binding.

T1 sequence (P50406 whole entry): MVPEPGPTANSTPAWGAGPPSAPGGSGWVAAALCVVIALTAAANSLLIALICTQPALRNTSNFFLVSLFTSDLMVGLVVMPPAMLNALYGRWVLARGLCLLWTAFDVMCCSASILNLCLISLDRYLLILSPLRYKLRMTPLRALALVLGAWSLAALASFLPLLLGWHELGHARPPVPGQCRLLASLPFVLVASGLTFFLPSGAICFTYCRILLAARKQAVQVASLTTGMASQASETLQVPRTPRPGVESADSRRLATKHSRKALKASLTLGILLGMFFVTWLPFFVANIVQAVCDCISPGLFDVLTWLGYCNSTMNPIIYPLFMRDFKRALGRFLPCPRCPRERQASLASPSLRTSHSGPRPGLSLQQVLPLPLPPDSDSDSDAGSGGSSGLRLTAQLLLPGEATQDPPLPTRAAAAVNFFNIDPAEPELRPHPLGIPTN

Take `N=C(N)NN=C(c1cn(S(=O)(=O)c2ccc3ccccc3c2)c2cc(F)ccc12)C1CC1` [Example 111, 2-{cyclopropyl[6-fluoro-1-(2-naphthylsulfonyl)-1H-indol-3-yl]methylidene}hydrazinecarboximidamide]: the inhibition at 0.1 µM ([3H]-LSD 3.0 nM) turned out to be 27.6%.

Under “[3H]-LSD 3.0 nM”, `COc1ccc(S(=O)(=O)n2cc(C(=NNC(=N)N)C3CC3)c3ccccc32)cc1` [Example 63, 2-(cyclopropyl{1-[(4-methoxyphenyl)sulfonyl]-1H-indol-3-yl}methylidene)hydrazinecarboximidamide] came in with an inhibition at 0.1 µM of 58.9%.

Turning to `CC(=NNC(=N)N)c1cn(S(=O)(=O)c2ccc([N+](=O)[O-])cc2)c2ccccc12` [Example 52, 2-(1-{1-[(4-nitrophenyl)sulfonyl]-1H-indol-3-yl}ethylidene)hydrazinecarboximidamide], the inhibition at 0.1 µM ([3H]-LSD 3.0 nM) was found to be 28.2%.

`CCC(=NNC(=N)N)c1cn(S(=O)(=O)c2ccccc2)c2ccc(F)cc12` [Example 118, 2-{1-[5-fluoro-1-(phenylsulfonyl)-1H-indol-3-yl]propylidene}hydrazinecarboximidamide] came in with a Ki of 7 nM.

As to `CCCCC(=NNC(=N)N)c1cn(S(=O)(=O)c2ccc3ccccc3c2)c2ccc(Cl)cc12` [Example 82, 2-{1-[5-chloro-1-(2-naphthylsulfonyl)-1H-indol-3-yl]pentylidene}hydrazinecarboximidamide], under setting [1], the inhibition at 1 µM came to 46.9%.

Turning to `CC(=NNC(=N)N)c1cn(S(=O)(=O)c2ccccc2Br)c2ccccc12` [Example 31, 2-(1-{1-[(2-bromophenyl)sulfonyl]-1H-indol-3-yl}ethylidene)hydrazinecarboximidamide], the affinity, expressed as Ki, was 13 nM. The compound also returned an inhibition at 0.1 µM ([3H]-LSD 3.0 nM) of 83.3%.

Regarding `CCCCC(=NNC(=N)N)c1cn(S(=O)(=O)c2ccc(OC)c(OC)c2)c2ccc(Cl)cc12` [Example 88, 2-(1-{5-chloro-1-[(3,4-dimethoxyphenyl)sulfonyl]-1H-indol-3-yl}pentylidene)hydrazinecarboximidamide], the inhibition at 1 µM under setting [1] is 65.6%.

In the case of `CC(=NNC(=N)N)c1cn(S(=O)(=O)c2cccc3nsnc23)c2ccccc12` [Example 24, 2-{1-[1-(2,1,3-benzothiadiazol-4-ylsulfonyl)-1H-indol-3-yl]ethylidene}hydrazinecarboximidamide], the inhibition at 0.1 µM ([3H]-LSD 3.0 nM) was determined as 62.9%.

In the case of `CC(=NNC(=N)N)c1c(-c2ccc(Cl)cc2)n(S(=O)(=O)c2ccccc2)c2ccccc12` [Example 95, 2-{1-[2-(4-chlorophenyl)-1-(phenylsulfonyl)-1H-indol-3-yl]ethylidene}hydrazinecarboximidamide], under setting [1], the inhibition at 1 µM stood at 89.6%.

For `CCCCC(=NNC(=N)N)c1cn(S(=O)(=O)c2ccc(OC)c(OC)c2)c2cc(F)ccc12` [Example 116, 2-(1-{1-[(3,4-dimethoxyphenyl)sulfonyl]-6-fluoro-1H-indol-3-yl}pentylidene)hydrazinecarboximidamide], the inhibition at 1 µM under setting [1] turned out to be 73.5%.

`CC(=NNC(=N)N)c1cn(S(=O)(=O)c2ccccc2[N+](=O)[O-])c2ccccc12` [Example 51, 2-(1-{1-[(2-nitrophenyl)sulfonyl]-1H-indol-3-yl}ethylidene)hydrazinecarboximidamide]: where the note is “[3H]-LSD 3.0 nM”, the inhibition at 0.1 µM turned out to be 70.1%.

`CCCNC(=N)NN=C(C)c1cn(S(=O)(=O)c2ccccc2)c2ccccc12` [Example 124, 2-{1-[1-(phenylsulfonyl)-1H-indol-3-yl]ethylidene}-N-propylhydrazinecarboximidamide]: where the note is “[3H]-LSD 3.0 nM”, 0.1 µM produced 75.2% inhibition.

`Cc1ccc(S(=O)(=O)n2cc(C=NN(C)C3=NCCN3)c3ccccc32)cc1` [Example 4, 1-[(4-methylphenyl)sulfonyl]-1H-indole-3-carbaldehyde 4,5-dihydro-1H-imidazol-2-yl(methyl)hydrazone]: the inhibition at 1 µM under setting [1] amounted to 71.9%.

On to `CCCCC(=NNC(=N)N)c1cn(S(C)(=O)=O)c2ccc(Cl)cc12` [Example 73, 2-{1-[5-chloro-1-(methylsulfonyl)-1H-indol-3-yl]pentylidene}hydrazinecarboximidamide], for which the inhibition at 1 µM under setting [1] is 71%.

Consider `CCCCS(=O)(=O)n1cc(C(C)=NNC(=N)N)c2ccccc21` [Example 58, 2-{1-[1-(butylsulfonyl)-1H-indol-3-yl]ethylidene}hydrazinecarboximidamide], for which at 0.1 µM the inhibition ([3H]-LSD 3.0 nM) was 78.3%.

Where the note is “[3H]-LSD 3.0 nM”, `CC(=NNC(=N)N)c1cn(S(=O)(=O)c2ccccc2)c2ccc(I)cc12` [Example 17, 2-{1-[5-iodo-1-(phenylsulfonyl)-1H-indol-3-yl]ethylidene}hydrazinecarboximidamide] returned an inhibition at 0.01 µM of 52%.

Consider `N=C(N)NN=C(c1cn(S(=O)(=O)c2ccccc2)c2cc(F)ccc12)C1CC1` [Example 114, 2-{cyclopropyl[6-fluoro-1-(phenylsulfonyl)-1H-indol-3-yl]methylidene}hydrazinecarboximidamide], for which, where the note is “[3H]-LSD 3.0 nM”, the inhibition at 0.1 µM was found to be 85.2%.

`N=C(N)NN=C(c1cn(S(=O)(=O)c2ccccc2)c2ccccc12)C1CCCCC1` [Example 2, 2-{Cyclohexyl[1-(phenylsulfonyl)-1H-indol-3-yl]methylidene}-hydrazinecarboximidamide] showed an inhibition at 1 µM of 69.2%.

`CC(=NNC(=N)N)c1cn(S(=O)(=O)c2cn(C)cn2)c2ccccc12` [Example 47, 2-(1-{1-[(1-methyl-1H-imidazol-4-yl)sulfonyl]-1H-indol-3-yl}ethylidene)hydrazinecarboximidamide] yielded a Ki of 46 nM. Besides, the inhibition at 0.1 µM ([3H]-LSD 3.0 nM) came out at 81.1%.

The compound `CC(=NNC(=N)N)c1cn(S(=O)(=O)c2cc(Cl)sc2Cl)c2ccccc12` [Example 41, 2-(1-{1-[(2,5-dichlorothien-3-yl)sulfonyl]-1H-indol-3-yl}ethylidene)hydrazinecarboximidamide] gave an inhibition at 0.1 µM ([3H]-LSD 3.0 nM) of 55%.

As for `CCCCS(=O)(=O)n1cc(C(=NNC(=N)N)C2CC2)c2ccccc21` [Example 60, 2-[[1-(butylsulfonyl)-1H-indol-3-yl](cyclopropyl)methylidene]hydrazinecarboximidamide], under “[3H]-LSD 3.0 nM”, the inhibition at 0.1 µM is 62.6%.

Turning to `N=C(N)NN=C(c1cn(S(=O)(=O)c2ccccc2)c2ccccc12)C1CC1` [Example 68, 2-{cyclopropyl[1-(phenylsulfonyl)-1H-indol-3-yl]methylidene}hydrazinecarboximidamide], the inhibition at 0.01 µM ([3H]-LSD 3.0 nM) worked out at 68.3%.

Where the note is “[3H]-LSD 3.0 nM”, `N=C(N)NN=C(c1cn(S(=O)(=O)c2ccccc2)c2ccc(Cl)cc12)C1CC1` [Example 86, 2-[[5-chloro-1-(phenylsulfonyl)-1H-indol-3-yl](cyclopropyl)methylidene]hydrazinecarboximidamide] came in with an inhibition at 0.1 µM of 78.1%.

In the case of `N=C(N)N/N=C(\C=C\c1ccccc1Cl)c1cn(S(=O)(=O)c2ccccc2)c2ccccc12` [Example 8, 2-{(E,2E)-3-(2-chlorophenyl)-1-[1-(phenylsulfonyl)-1H-indol-3-yl]prop-2-enylidene}-hydrazinecarboximidamide], the inhibition at 1 µM under setting [1] was found to be 95.2%.

In turn, `CC(=NNC(=N)N)c1c(-c2ccccc2)n(S(=O)(=O)c2ccccc2)c2ccccc12` [Example 15, 2-{1-[2-phenyl-1-(phenylsulfonyl)-1H-indol-3-yl]ethylidene}hydrazinecarboximidamide] displayed an inhibition at 0.1 µM ([3H]-LSD 3.0 nM) of 67.1%.

Take `CC(=NNC(=N)N)c1cn(S(C)(=O)=O)c2ccccc12` [Example 55, 2-{1-[1-(methylsulfonyl)-1H-indol-3-yl]ethylidene}hydrazinecarboximidamide]: the inhibition at 0.1 µM ([3H]-LSD 3.0 nM) came to 68.2%.

The compound `COc1ccc(Cl)cc1S(=O)(=O)n1cc(C(C)=NNC(=N)N)c2ccccc21` [Example 34, 2-(1-{1-[(5-chloro-2-methoxyphenyl)sulfonyl]-1H-indol-3-yl}ethylidene)hydrazinecarboximidamide] gave an inhibition at 0.1 µM ([3H]-LSD 3.0 nM) of 48%.

Under “[3H]-LSD 3.0 nM”, `CC(=NNC(=N)NCc1ccccn1)c1cn(S(=O)(=O)c2ccccc2)c2ccccc12` [Example 126, 2-{1-[1-(phenylsulfonyl)-1H-indol-3-yl]ethylidene}-N-(pyridin-2-ylmethyl)hydrazinecarboximidamide] gave an inhibition at 0.1 µM of 37.7%.

With `CCCCC(=NNC(=N)N)c1cn(S(=O)(=O)c2ccc3ccccc3c2)c2ccccc12` [Example 65, 2-{1-[1-(2-naphthylsulfonyl)-1H-indol-3-yl]pentylidene}hydrazinecarboximidamide], the inhibition at 1 µM under setting [1] turned out to be 62.3%.

The values above are taken from patent US6906095B2, “Indolylalkylidenehydrazine-carboximidamide derivatives as 5-hydroxytryptamine-6 ligands” (Wyeth, priority 2002, dated 2005).
